Assay results published in patent US20080227638A1, “Use of abscisic acid to enhance growth control” (priority 2007, published 2008).

Legend:
Type in all cases: in vivo
creeping bentgrass green = test: Soil moisture of creeping bentgrass green, ABA and trinexapac-ethyl (Example 8); conditions: 25 ppm trinexapac-ethyl
Experimental: (§1) Field studies were conducted at the nursery green or the practice green at Countryside golf course (Mundelein, Ill.). Both greens were sand based and growing Penncross creeping bentgrass. Grass was managed with typical Illinois golf course management practices.
(§2) Chemical solutions were prepared with distilled water. Tween 20 (0.05% v/v) was used as an, adjuvant. Both trinexapac-ethyl (commercial product Primo Maxx, 11.3% active ingredient) and paclobutrazol (commercial product Trimmit 2SC, 22.3% active ingredient) were purchased from Syngenta Crop Protection Inc. (Greensboro, N.C.). Uniconazole-P (commercial product Sumagic, 0.55% active ingredient) was obtained from Valent U.S.A. Corporation (Walnut Creek, Calif.).
(§3) When treated with paclobutrazol or uniconazole-P, turfgrass received irrigation within 24 hours after application to flush chemicals to the root zone. After treatment, turfgrasses were arranged in a randomized complete block experimental design. Turfgrass quality, turfgrass height or clip fresh weight was measured on assigned dates. Turfgrass quality was visually rated on a 0-9 scale based on the color, uniformity and density of the grass with 0 as the worst and 9 as the best. Turfgrass height was measured as the distance between canopy surface and soil. Clips were collected from each plot; all plots were cut to a uniform height.
(§4) All experiments were randomized complete block experimental design. Data were analyzed by analysis of variance. Duncan's new multiple range tests at α=0.05 were used for mean separations.
(§5) Tween 20 (0.05% w/v) was included as an adjuvant.

creeping bentgrass = test: Golf course green creeping bentgrass height, ABA and trinexapac-ethyl (Example 4)
Experimental: as §1, §2, §3, §4, §5

Kentucky bluegrass = test: Greenhouse Kentucky bluegrass height and quality, ABA and trinexapac-ethyl (Example 1); conditions: for Quality: visual 0-9 scale
Experimental: Greenhouse studies were conducted at the Research Farm of Valent BioSciences Corporation (Long Grove, Ill.). Grasses were grown in pots (18 cm in diameter and 18 cm in height) filled with Promix BX (available from Premier Horticulture Inc. Quakertown, Pa.). Grass was irrigated daily by an overhead irrigation system. The irrigation system was set up with multiple Tornado Mist Spray Heads (10 GPH at 40 PSI-Wetted diameter, NDS/Raindrip, Woodland Hills, Calif.). Spray heads were 1-meter apart from each other and 75 cm above grass canopy. Grass was cut with a scissor at 2.5 cm height and fertilizer (1 g/L all purpose fertilizer 20-20-20, available from The Scotts Company, Marysville, Ohio) was applied once per week.
as §2, §3, §4
Kentucky bluegrass sod (unknown variety) was purchased from Deak sod farms, Inc. (Union Grove, Wis.). Grass was grown in the greenhouse in pots (n=6 pots per treatment) for establishment before treatment. […] Tween 20 (0.05% w/v) was included as an adjuvant. Turfgrass canopy was not cut during the experimental period.

[1] = system: tomato (variety: Rutgers); test: Tomato plant height, growth rate and leaf number (Example 9); conditions: for Leaf number: 15 days after treatment
Excerpt: (§6) Tomato (variety: Rutgers) seeds were sown in 18-cell flat filled with Promix PGX (available from Premier Horticulture Inc. Quakertown, Pa.) and grown for 3 weeks to allow for germination and initial growth. Plants were then transplanted into pots (18 cm in diameter and 18 cm in height), filled with Promix BX (available from Premier Horticulture Inc. Quakertown, Pa.), and grown for one week before the chemical treatment. Plants received daily irrigation and weekly fertilizer (1 g/L all purpose fertilizer 20-20-20, available from The Scotts Company, Marysville, Ohio).
(§7) During the chemical treatment, a 15 mL (2.5 mL/plant) solution was foliar sprayed on the tomato canopy. Leaf transpiration rates were measured using a LI-1600 Steady State Porometer (LI-Cor, Lincoln, Nebr.) at 1, 2, 3, 4, 7, 10 and 15 days after treatment. Leaf transpiration rate was normalized to the percentage of control plant to minimize the experimental errors caused by environmental factors. Plant height was measured at 0, 2, 4, 7, 10 and 15 days after treatment. Growth rate was calculated based on the changes of plant height in certain intervals. The plants were harvested and the leaf number was counted at 15 days after treatment.

[2] = system: tomato (variety: Rutgers); test: Tomato leaf transpiration, porometer (Example 9)
Excerpt: as §6, §7

[3] = 40 ppm trinexapac-ethyl, 23 days after treatment
[4] = 80 ppm trinexapac-ethyl, 23 days after treatment
[5] = 160 ppm trinexapac-ethyl, 23 days after treatment
[6] = 250 ppm trinexapac-ethyl, day 2 after treatment
[7] = 250 ppm trinexapac-ethyl, day 4 after treatment
[8] = 250 ppm trinexapac-ethyl, day 7 after treatment
[9] = 250 ppm trinexapac-ethyl, day 10 after treatment
[10] = 250 ppm trinexapac-ethyl, day 15 after treatment
[11] = 500 ppm trinexapac-ethyl, day 2 after treatment
[12] = 500 ppm trinexapac-ethyl, day 4 after treatment
[13] = 500 ppm trinexapac-ethyl, day 7 after treatment
[14] = 500 ppm trinexapac-ethyl, day 10 after treatment
[15] = 500 ppm trinexapac-ethyl, day 15 after treatment
[16] = 1000 ppm trinexapac-ethyl, day 2 after treatment
[17] = 1000 ppm trinexapac-ethyl, day 4 after treatment
[18] = 1000 ppm trinexapac-ethyl, day 7 after treatment
[19] = 1000 ppm trinexapac-ethyl, day 10 after treatment
[20] = 1000 ppm trinexapac-ethyl, day 15 after treatment
[21] = 2000 ppm trinexapac-ethyl, day 2 after treatment
[22] = 2000 ppm trinexapac-ethyl, day 4 after treatment
[23] = 2000 ppm trinexapac-ethyl, day 7 after treatment
[24] = 2000 ppm trinexapac-ethyl, day 10 after treatment
[25] = 2000 ppm trinexapac-ethyl, day 15 after treatment

With CCOC(=O)C1CC(=O)C(=C(O)C2CC2)C(=O)C1 (stereo not shown) [trinexapac-ethyl] the Soil moisture (creeping bentgrass green; 2 days after treatment) was 11.2%, the Soil moisture (creeping bentgrass green; 7 days after treatment) was 12.7% and the Turfgrass height (creeping bentgrass; 12.5 ppm trinexapac-ethyl, 7 days after treatment) was 6.0 cm. It also gave a Turfgrass height (creeping bentgrass; 12.5 ppm trinexapac-ethyl, 14 days after treatment) of 8.5 cm, a Turfgrass height (creeping bentgrass; 50 ppm trinexapac-ethyl, 7 days after treatment) of 4.3 cm and a Turfgrass height (creeping bentgrass; 50 ppm trinexapac-ethyl, 14 days after treatment) of 5.5 cm. For the same compound, the Turfgrass height (Kentucky bluegrass; 40 ppm trinexapac-ethyl, 7 days after treatment) was 9.5 cm, the Turfgrass height (Kentucky bluegrass; [3]) was 18.0 cm and the Quality (Kentucky bluegrass; [3]) was 7.8. It also gave a Turfgrass height (Kentucky bluegrass; 80 ppm trinexapac-ethyl, 7 days after treatment) of 7.4 cm, a Turfgrass height (Kentucky bluegrass; [4]) of 17.3 cm and a Quality (Kentucky bluegrass; [4]) of 8.0. The Turfgrass height (Kentucky bluegrass; 160 ppm trinexapac-ethyl, 7 days after treatment) was 6.1 cm, the Turfgrass height (Kentucky bluegrass; [5]) was 13.3 cm and the Quality (Kentucky bluegrass; [5]) was 7.0. The Leaf number ([1]; 250 ppm trinexapac-ethyl) was 12.0, the Plant height ([1]; 250 ppm trinexapac-ethyl, day 0 after treatment) was 10.3 cm and the Growth rate [1, 6] was 1.7 cm/day. The Plant height [1, 6] was 13.6 cm, the Growth rate [1, 7] was 1.5 cm/day and the Plant height [1, 7] was 16.4 cm. The Growth rate [1, 8] was 2.6 cm/day, the Plant height [1, 8] was 28.7 cm and the Growth rate [1, 9] was 2.2 cm/day. For the same compound, the Plant height [1, 9] was 32.3 cm, the Growth rate [1, 10] was 2.7 cm/day and the Plant height [1, 10] was 50.6 cm. For the same compound, the Leaf number ([1]; 500 ppm trinexapac-ethyl) was 11.7, the Plant height ([1]; 500 ppm trinexapac-ethyl, day 0 after treatment) was 9.8 cm and the Growth rate [1, 11] was 1.7 cm/day. The Plant height [1, 11] was 13.1 cm, the Growth rate [1, 12] was 1.5 cm/day and the Plant height [1, 12] was 15.9 cm. The Growth rate [1, 13] was 2.6 cm/day, the Plant height [1, 13] was 28.3 cm and the Growth rate [1, 14] was 2.2 cm/day. The Plant height [1, 14] was 31.2 cm, the Growth rate [1, 15] was 2.6 cm/day and the Plant height [1, 15] was 50.7 cm. For the same compound, the Leaf number ([1]; 1000 ppm trinexapac-ethyl) was 11.7, the Plant height ([1]; 1000 ppm trinexapac-ethyl, day 0 after treatment) was 10.0 cm and the Growth rate [1, 16] was 1.2 cm/day. The Plant height [1, 16] was 12.3 cm, the Growth rate [1, 17] was 1.4 cm/day and the Plant height [1, 17] was 15.4 cm. The Growth rate [1, 18] was 2.4 cm/day, the Plant height [1, 18] was 26.7 cm and the Growth rate [1, 19] was 2.1 cm/day. It also gave a Plant height [1, 19] of 31.3 cm, a Growth rate [1, 20] of 2.8 cm/day and a Plant height [1, 20] of 52.7 cm. The Leaf number ([1]; 2000 ppm trinexapac-ethyl) was 11.5, the Plant height ([1]; 2000 ppm trinexapac-ethyl, day 0 after treatment) was 9.9 cm and the Growth rate [1, 21] was 1.2 cm/day. For the same compound, the Plant height [1, 21] was 12.2 cm, the Growth rate [1, 22] was 1.5 cm/day and the Plant height [1, 22] was 15.8 cm. It also gave a Growth rate [1, 23] of 2.0 cm/day, a Plant height [1, 23] of 23.9 cm and a Growth rate [1, 24] of 2.0 cm/day. The Plant height [1, 24] was 29.3 cm, the Growth rate [1, 25] was 2.7 cm/day and the Plant height [1, 25] was 50.6 cm. The Transpiration ([2]; 250 ppm trinexapac-ethyl, day 1 after treatment) was 91 % of control, the Transpiration [2, 6] was 99 % of control and the Transpiration ([2]; 250 ppm trinexapac-ethyl, day 3 after treatment) was 91 % of control. The Transpiration [2, 7] was 95 % of control, the Transpiration [2, 8] was 100 % of control and the Transpiration [2, 9] was 98 % of control. The Transpiration [2, 10] was 98 % of control, the Transpiration ([2]; 500 ppm trinexapac-ethyl, day 1 after treatment) was 91 % of control and the Transpiration [2, 11] was 95 % of control. For the same compound, the Transpiration ([2]; 500 ppm trinexapac-ethyl, day 3 after treatment) was 89 % of control, the Transpiration [2, 12] was 96 % of control and the Transpiration [2, 13] was 100 % of control. For the same compound, the Transpiration [2, 14] was 99 % of control, the Transpiration [2, 15] was 100 % of control and the Transpiration ([2]; 1000 ppm trinexapac-ethyl, day 1 after treatment) was 92 % of control. For the same compound, the Transpiration [2, 16] was 96 % of control, the Transpiration ([2]; 1000 ppm trinexapac-ethyl, day 3 after treatment) was 91 % of control and the Transpiration [2, 17] was 98 % of control. The Transpiration [2, 18] was 100 % of control, the Transpiration [2, 19] was 103 % of control and the Transpiration [2, 20] was 99 % of control. For the same compound, the Transpiration ([2]; 2000 ppm trinexapac-ethyl, day 1 after treatment) was 95 % of control, the Transpiration [2, 21] was 94 % of control and the Transpiration ([2]; 2000 ppm trinexapac-ethyl, day 3 after treatment) was 90 % of control. For the same compound, the Transpiration [2, 22] was 98 % of control, the Transpiration [2, 23] was 97 % of control and the Transpiration [2, 24] was 99 % of control. The Transpiration [2, 25] was 98 % of control.
